{"source": "patent US20260191189A1", "about": "“CALCIFEROLS TO REDUCE ENVIRONMENTAL IMPACT OF RODENTICIDES” (priority 2021, published 2026)", "key": {"[1]": {"conditions": "Sprague-Dawley rats, oral administration of 3.0 mg/kg; cited from earlier work"}, "[2]": {"conditions": "cited from earlier work"}, "[3]": {"tested_on": "rats (Rattus norvegicus)", "experiment": "Lab test of stop feeding effect (choice feeding test)", "type": "in vivo", "conditions": "100 mg/kg of calciferol", "from_the_text": "A lab trial was set up to test the stop-feeding effect induced by calciferol-containing bait in the absence of an anticoagulant rodenticide. Three groups (Group control, Group a, and Group b) of ten rats (Rattus norvegicus) each were subjected to the experiment. The control group and Group a consisted of male rats; Group b consisted of female rats. The groups were kept in three connected pens (20 cm×60 cm) with shelter, saw-dust, water and feed ad libitum under standard laboratory conditions. The rats acclimatized in the test setup for ten days, with standard lab chew ad libitum.\nThe test-bait formulation was a paste-bait, based on vegetable fat and cereal flour, and contained cholecalciferol at 100 mg/kg. During the choice feeding test, the rats of both treatment groups (a and b) received the cholecalciferol-containing bait and the challenge diet (standard rat chew; Höveler, Germany) ad libitum. The control group received the same bait as the treatment groups but without cholecalciferol, and the challenge diet. Consumption of bait and challenge diet was recorded in all groups daily for 14 days. The daily bait consumption results are depicted in FIG. 1.\nFIG. 1 depicts the daily consumption of bait (grams) in the laboratory study of Experiment 1, where three groups of rats (n=10 each) were given a choice between standard lab diet, and bait with or without cholecalciferol (100 mg/kg). […]"}, "[4]": {"tested_on": "rats and mice", "conditions": "cited from earlier work"}, "[5]": {"tested_on": "rats or mice", "conditions": "in rodenticide bait, alone or combined with warfarin; cited from earlier work"}}}
{"smiles": "O=c1oc2ccccc2c(O)c1[C@@H]1Cc2ccccc2[C@H](c2ccc(-c3ccc(Br)cc3)cc2)C1", "note": "(single isomer, unassigned) [cis-isomer of brodifacoum]", "values": [{"measurement": "liver half-life", "setting": "[1]", "result": 120.82, "unit": "h"}]}
{"smiles": "O=c1oc2ccccc2c(O)c1C1CCCc2ccccc21", "note": "(stereo not shown) [coumatetralyl, 4-Hydroxy-3-(1,2,3,4-tetrahydro-1-naphthyl) coumarin]", "values": [{"measurement": "plasma half-life", "setting": "[2]", "result": 0.52, "unit": "days"}]}
{"smiles": "O=c1oc2ccccc2c(O)c1C1CC(c2ccc(-c3ccc(Br)cc3)cc2)Cc2ccccc21", "note": "(single isomer, unassigned) [trans-isomer of brodifacoum]", "values": [{"measurement": "liver half-life", "setting": "[1]", "result": 68.73, "unit": "h"}]}
{"smiles": "O=c1oc2ccccc2c(O)c1[C@@H]1C[C@@H](c2ccc(OCc3ccc(C(F)(F)F)cc3)cc2)Cc2ccccc21", "note": "(single isomer, unassigned) [cis-isomer of flocoumafen]", "values": [{"measurement": "liver half-life", "setting": "[1]", "result": 76.73, "unit": "h"}]}
{"smiles": "O=c1oc2ccccc2c(O)c1C1CC(c2ccc(-c3ccc(Br)cc3)cc2)Cc2ccccc21", "note": "(stereo not shown) [brodifacoum, 3-[3-[4-(4-bromophenyl)phenyl]-1,2,3,4-tetrahydronaphthalen-1-yl]-4-hydroxychromen-2-one]", "values": [{"measurement": "half-life in the liver", "setting": "[2]; liver", "result": 307.4, "unit": "days"}, {"measurement": "plasma half-life", "setting": "[2]", "result": 91.7, "unit": "days"}]}
{"smiles": "C=C1CC[C@H](O)C/C1=C/C=C1\\CCC[C@]2(C)[C@@H]([C@H](C)/C=C/[C@H](C)C(C)C)CC[C@@H]12", "note": "[calciferol]", "values": [{"measurement": "stop feeding effect", "setting": "[3]", "result": "significant stop feeding effect within two days"}, {"measurement": "acute oral LD50", "setting": "[4]", "result": "30 to 100", "unit": "mg/kg"}, {"measurement": "minimum concentration likely to give good results in the field", "setting": "[5]", "result": 0.1, "unit": "%"}]}
{"smiles": "O=c1oc2ccccc2c(O)c1C(CC(O)c1ccc(-c2ccc(Br)cc2)cc1)c1ccccc1", "note": "(single isomer, unassigned) [cis-isomer of bromadiolone]", "values": [{"measurement": "liver half-life", "setting": "[1]", "result": 26.89, "unit": "h"}]}
